In patent US20250186433A1, “ACSS2 INHIBITORS AND METHODS OF USE THEREOF” (EpiVario, Inc., priority 2017, published 2025):
pIC50: −log10 of the molar value.

What was measured:
[1] = molecular target: T1, ACSS1 (Homo sapiens, UniProt Q9NUB1); experiment: Acyl-CoA synthetases selectivity panel: ACSS1; type: biochemical; settings: human recombinant protein, substrate acetate, AMP readout by HPLC; read-out: HPLC based activity assays IC50 (UM) ACSS1
T1 construct: purchased Cusabio, China
T1 sequence (Q9NUB1 38-689): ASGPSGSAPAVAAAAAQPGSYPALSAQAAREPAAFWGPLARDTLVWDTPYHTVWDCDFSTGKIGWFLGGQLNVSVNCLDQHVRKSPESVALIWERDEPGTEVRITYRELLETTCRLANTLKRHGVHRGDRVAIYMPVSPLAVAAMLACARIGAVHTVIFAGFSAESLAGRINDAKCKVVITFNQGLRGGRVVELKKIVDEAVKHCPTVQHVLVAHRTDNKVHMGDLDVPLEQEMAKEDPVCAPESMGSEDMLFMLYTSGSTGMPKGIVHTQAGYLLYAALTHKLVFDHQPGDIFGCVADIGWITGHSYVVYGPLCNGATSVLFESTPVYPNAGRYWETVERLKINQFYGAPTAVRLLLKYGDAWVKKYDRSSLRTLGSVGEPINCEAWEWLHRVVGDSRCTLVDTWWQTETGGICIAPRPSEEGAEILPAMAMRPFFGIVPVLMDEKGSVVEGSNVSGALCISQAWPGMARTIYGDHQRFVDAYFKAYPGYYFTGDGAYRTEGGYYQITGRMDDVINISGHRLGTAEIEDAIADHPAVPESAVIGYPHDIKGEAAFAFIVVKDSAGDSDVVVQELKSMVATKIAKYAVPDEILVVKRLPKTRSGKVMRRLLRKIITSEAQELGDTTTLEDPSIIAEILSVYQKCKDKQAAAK

[2] = molecular target: T2, ACSF2 (Homo sapiens, UniProt Q96CM8); experiment: Acyl-CoA synthetases selectivity panel: ACSF2; type: biochemical; settings: human recombinant protein, substrate octanoate, AMP readout by HPLC; read-out: HPLC based activity assays IC50 (UM) ACSF2
T2 construct: purchased Cusabio, China
T2 sequence (Q96CM8 42-615): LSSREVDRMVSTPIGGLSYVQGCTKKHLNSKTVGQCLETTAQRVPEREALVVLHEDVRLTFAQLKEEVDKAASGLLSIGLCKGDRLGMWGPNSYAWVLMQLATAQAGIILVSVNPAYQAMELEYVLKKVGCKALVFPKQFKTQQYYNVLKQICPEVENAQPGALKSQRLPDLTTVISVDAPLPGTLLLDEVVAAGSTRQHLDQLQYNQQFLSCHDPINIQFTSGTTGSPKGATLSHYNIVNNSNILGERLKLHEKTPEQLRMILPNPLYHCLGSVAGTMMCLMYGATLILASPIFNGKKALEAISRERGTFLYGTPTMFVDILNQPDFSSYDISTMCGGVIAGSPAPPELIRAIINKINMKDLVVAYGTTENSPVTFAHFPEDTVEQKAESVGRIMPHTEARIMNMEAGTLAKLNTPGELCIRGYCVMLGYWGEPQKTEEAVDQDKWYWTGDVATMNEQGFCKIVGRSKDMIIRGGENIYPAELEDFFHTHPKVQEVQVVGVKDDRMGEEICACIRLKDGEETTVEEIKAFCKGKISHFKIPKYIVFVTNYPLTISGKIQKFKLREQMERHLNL

## COC(=O)c1cccc(N2N=C(C)C(C(=O)Nc3cccc(C(C)(F)F)c3)C2=O)c1 (centres unmarked) [compound 261, methyl 3-(4-((3-(1,1-difluoroethyl)phenyl)carbamoyl)-3-methyl-5-oxo-4,5-dihydro-1H-pyrazol-1-yl)benzoate]
[1]
  pIC50: 5.00 to 6.00
[2]
  pIC50: 4.34
